# Laboratory results from patent US8524860B2, “Peptides with capacity to bind to scurfin and applications” (Proyecto de Biomedicina CIMA, S.L., priority 2007, dated 2013).
# No end group written: not given here.
# How the values were obtained:
# [1] = molecular target: T1, scurfin (Homo sapiens, UniProt Q9BZS1); assay: Surface plasmon resonance (SPR) analysis of peptide binding to immobilized scurfin; conditions: peptide 10 μM, scurfin immobilized on CM5 chip, compared with irrelevant control peptide (SEQ ID NO: 6)
# T1 construct: GST (glutathione-S-transferase); made in house; host or cells: Escherichia coli BL21
# T1 sequence (Q9BZS1 1-431): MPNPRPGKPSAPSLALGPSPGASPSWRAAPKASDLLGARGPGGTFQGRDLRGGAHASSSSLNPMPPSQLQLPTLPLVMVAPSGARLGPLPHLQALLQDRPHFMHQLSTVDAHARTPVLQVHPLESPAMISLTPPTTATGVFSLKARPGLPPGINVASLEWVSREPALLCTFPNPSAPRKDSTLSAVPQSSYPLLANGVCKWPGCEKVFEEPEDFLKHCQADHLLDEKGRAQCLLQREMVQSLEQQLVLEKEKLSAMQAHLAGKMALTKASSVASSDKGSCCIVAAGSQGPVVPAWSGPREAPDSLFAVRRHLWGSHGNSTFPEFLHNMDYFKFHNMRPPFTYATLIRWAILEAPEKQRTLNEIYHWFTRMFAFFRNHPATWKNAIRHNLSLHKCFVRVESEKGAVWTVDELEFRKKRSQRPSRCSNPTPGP
# Excerpt: The capacity of peptide P60 (SEQ ID NO: 1) to bind to scurfin was verified by means of the biomolecular interaction surface plasmon resonance (SPR) using the Biosensor BIAcore X (BIAcore, AB, Uppsala, Sweden). Scurfin, produced in E. coli and purified by affinity using GSTrap columns (Amersham, Pharmacia), was covalently immobilized on the surface of the flow cell 2 (FC2) of a CM5 chip (Sensor Chip CM Ref 116Br-1000-14, BIAcore, General Electrics), as described in De Crescenzo et al. (JBC 2001, Vol 276; 29632-29643). Flow cell 1 (FC1), on the surface of which scurfin is not immobilized, was used as a reference reflow cell. The solutions of each peptide (10 μM) were injected three times in a 10 mM Hepes buffer, 150 mM NaCl, pH 7.4 at a flow of 30 μl/min. The binding curves were processed by means of subtracting the response in FC1 from that obtained in FC2. The response in equilibrium was compared between peptide P60 (SEQ ID NO: 1) and an irrelevant control peptide of the same size (length), specifically, the peptide the amino acid sequence of which is shown in SEQ ID NO: 6, corresponding to amino acids 123-137 of the human CD81 receptor. Each response was multiplied by a mass correction factor: MW(P60)/MW(P), wherein MW(P60) is the molecular weight of peptide P60 (SEQ ID NO: 1) and MW(P) is that of the control peptide.
# For the purpose of evaluating the importance of the amino acids placed at the amino-terminal and carboxyl-terminal ends of peptide P60 (SEQ ID NO: 1), truncated forms of said peptide P60 (SEQ ID NO: 1) were chemically synthesized as has been mentioned above, and the capacity of said truncated forms to bind to scurfin was assayed by means of SPR, according to the protocol previously described in section 1.3.
# Likewise, the capacity of said peptides (SEQ ID NO: 2, SEQ ID NO: 3 and SEQ ID NO: 4) to bind to scurfin was assayed by means of SPR in the previously mentioned conditions.
# [2] = system: CT26 colon cancer line; assay: CT26 colon cancer tumor model, antitumor vaccination with peptide AH1; assay type: in vivo, BALB/c mice; conditions: for protection from tumor: n=11
# Excerpt: The tumor model used for this assay has been a model based on the CT26 colon cancer line, described in a previous work of the laboratory of the inventors (Casares et al, 2001. Eur J Immunol 31:1780-9; Casares et al., 2003. J Immunol 171:5931-9), since the inventors had previously shown that, in this model, Treg lymphocytes have an immunosuppressive effect favoring tumor growth (Casares et al., 2003, mentioned above).
# The synthetic peptide (SEQ ID NO: 8) was used as a vaccine antigen, which peptide contains a cytotoxic T determinant for the CT26 line (Huang, A. Y. et al, Proc Natl Acad Sci USA, 1996. 93:9730-9735) and the immunization of which delays the tumor growth to a certain extent, without eliminating it due to the presence of Treg lymphocytes (Casares et al., 2003, mentioned above).
# Briefly, groups of 6 six-week old BALB/c mice (Charles River) were immunized with peptide AH1 (SEQ ID NO: 8) as described in Casares et al., 2001, mentioned above, in the presence or absence of peptide P60 (SEQ ID NO: 1). Ten days after the immunization, the mice were subcutaneously injected with 5×10^5 CT26 cells, and the tumor evolution was measured.
# [3] = system: murine Treg lymphocytes; assay: Murine MLR (BALB/c effector lymphocytes with C57BL/6 dendritic cells) with BALB/c Treg lymphocytes, tritiated thymidine incorporation; assay type: cell-based, mouse; conditions: 100 μM
# Description: Secondly, mixed lymphocyte reaction (MLR) assays were carried out. The effector lymphocytes isolated from BALB/c mice (10^5 cells/well) were co-cultured with purified dendritic cells from C57BL/6 mice (Charles River), in the presence or absence of BALB/c Treg lymphocytes and in the presence or absence of peptide P60 (SEQ ID NO: 1) (100 μM). The measurement of the cell proliferation was carreid out by means of a conventional tritiated thymidine incorporation assay as has been previously described.
# [4] = system: murine Treg lymphocytes; assay: Activation of BALB/c mouse splenocytes with anti-CD3 antibodies with murine Treg lymphocytes, IFN-γ; assay type: cell-based; conditions: 100 μM
# Description: Firstly, assays of activation of BALB/c mouse splenocytes (Charles River) in the presence of anti-CD3 antibodies (Ref 553057, BD Biosciences) were carried out.
# [5] = system: human Treg lymphocytes; assay: IFN-γ production by human CD4 effector T lymphocytes stimulated with anti-CD3/CD28 microspheres with human Treg lymphocytes; assay type: cell-based; conditions: 100 μM, anti-CD3/CD28 stimulus, 48 hours, ELISA
# Description: This assay is based on the measurement of the production of IFN-γ in a culture of 10^5 human CD4 effector T lymphocytes cultured with microspheres containing anti-CD3 and anti-CD28 antibodies adhered to their surface (Dynabeads® CD3/CD28; Ref 111.31, Dynal), in the presence or absence of 2×10^4 human Treg lymphocytes (purified as indicated above). This assay was carried out in the presence or absence of peptide P60 (SEQ ID NO: 1) to assess its inhibitory effect of Treg lymphocytes. After 48 hours of culture, the presence of IFN-γ in the culture supernatants was measured by means of a commercial ELISA (Ref 555138, Pharmingen).
# [6] = system: murine Treg lymphocytes; assay: Co-culture of OT-1 transgenic mouse effector lymphocytes with dendritic cells, SIINFEKL antigen and Treg lymphocytes, IFN-γ ELISA; assay type: cell-based; conditions: 100 μM, SIINFEKL 10 μg/ml, OT-1 effector lymphocytes
# Description: Thirdly, the effect of peptide P60 (SEQ ID NO: 1) was measured in an assay based on co-culturing splenocytes from OT-1 transgenic mice (the T lymphocytes of which have a specific T cell receptor for the peptide SIINFEKL (SEQ ID NO: 7) of ovalbumin, which were kindly provided by Dr Melero, CIMA Pamplona) with Treg lymphocytes in the presence of antigen (SEQ ID NO: 7) and in the presence or absence of Treg lymphocytes. […] The effector lymphocytes isolated from OT-1 transgenic mice (10^5 cells/well) were co-cultured with dendritic cells from C57BL/6 mice and the peptide SIINFEKL (SEQ ID NO: 7) (10 μg/ml), in the presence or absence of 2×10^4 BALB/cregulatory T cells and in the presence or absence of peptide P60 (SEQ ID NO: 1) (100 μM).
# [7] = system: inhibition of the activation of transcription factor NF-κB by scurfin; assay: NF-κB luciferase reporter in 293 cells transfected with pcDNA-Foxp3; assay type: cell-based; conditions: 100 μM, 24 hours
# Excerpt: It has been described that the presence of scurfin can inhibit the activation of the transcription factor NF-kB in 293 cells (Betelli et al, Proc Natl Acad Sci USA. 2005 102:5138-43). Based on this work, the effect of the addition of peptide P60 (SEQ ID NO: 1) to a culture of 293 cells transfected with a plasmid expressing the foxp3 gene, kindly provided by Dr Oukka and previously described (Betelli et al, Proc Natl Acad Sci USA. 2005 102:5138-43) and to a culture of 293 cells transfected with a control plasmid together with a plasmid expressing luciferase under a promoter inducible by NF-κB (Ref 631904, pNF-kB-Luc, Clontech) has been studied. The 293 cells were transfected by means of using lipofectamine with plasmid pNF-kB-Luc expressing luciferase under a promotor inducible by transcription factor NF-kB, in the presence or absence of plasmid pcDNA, pcDNA-Foxp3 and peptide P60 (SEQ ID NO: 1) (100 μM). After 24 hours of culture, the cells were harvested and the luciferase activity in the cell extracts was measured by means of using a suitable kit (Promega, Maddison, USA) and the luminometer (Orion Microplate luminometer, Berthold detection systems, Germany).
# [8] = system: human Treg lymphocytes; assay: MLR of PBMCs from 2 donors with human Treg lymphocytes, tritiated thymidine incorporation; assay type: cell-based; conditions: 100 μM, 3 days of culture
# Description: To carry out the assay based on a mixed lymphocyte reaction (MLR), such as that shown in Example 2, peripheral blood mononuclear cells (PBMCs) from 2 donors were mixed together with CD4+CD25+ Treg cells (Treg lymphocytes) purified from one of them, by means of using a commercial kit (Ref 130091072, Miltenyi Biotec, Bergisch Gladbach, Germany) following the instructions of the manufacturer. After the purification, the cells were analyzed by flow cytometry, a purity of approximately 90% being obtained in all the assays. This MLR assay was carried out incubating 10^5 PBMC cells from each donor and 2×10^4 Treg lymphocytes in the presence or absence of peptide P60 (SEQ ID NO: 1), for the purpose of assaying its capacity to block the inhibitory effect of human Treg lymphocytes. After 3 days of culture, 0.5 μCi/well of tritiated thymidine (Amersham, Pharmacia) and after 16 hours, the plates were harvested using a harvester (Filtermate 96 harvester; Packard Instrument, Meriden, Conn.) and the radioactivity incorporated to the cell DNA was counted (as a measurement of the cell proliferation) by means of a scintillation counter (Topcount; Packard Instrument).
# [9] = system: Karpas 299 human cell line; assay: Mixed lymphocyte reaction (MLR) of PBMCs from 2 donors with Karpas 299 cells, IFN-γ ELISA; assay type: cell-based
# Description: After verifying and confirming its profile, in vitro assays were carried out using the Karpas 299 human cell line (ACC-31, DSMZ, Germany), derived from a human lymphoma with a regulatory T cell [Treg lymphocytes] profile (Wolke et al Int J Mol. Med. 2006 February; 17(2):275-8), the need to isolate CD4+CD25+ cells is thus prevented.
# To evaluate the effect of peptide P60 (SEQ ID NO: 1) on the immunosuppressive activity of the Karpas 299 cell line, a “mixed lymphocyte reaction” (MLR) assay was carried out using peripheral blood mononuclear cells (PBMCs) from 2 donors in the presence or absence of the Karpas 299 cell line. This assay (MLR) is based on co-culturing lymphocytes of a different origin, with different histocompatibilities, which will recognize one another as foreign. This reaction makes lymphocytes proliferate, secreting cytokines. For this assay, 100,000 cells of each donor (positive MLR control) were cultured in a 96-well plate, alone or in the presence of 10,000 cells of the Karpas 299 cell line.
# After 48 hours, the supernatants were extracted to measure interferon-gamma (IFN-γ) by means of a commercial ELISA (Ref 555138, Pharmingen, San Diego, Calif., United States). […] In this assay of inhibition of the MLR due to the presence of the Karpas 299 cell line, the capacity of peptide P60 (SEQ ID NO: 1) to restore the production of IFN-γ due to the MLR was analyzed.
substance,measurement,setting,value
"RDFQSFRKMWPFF [T(1-13), truncated form of P60, amino acids 1-13 of P60]",capacity to bind to scurfin (SPR signal),[1],does not destroy the capacity of the peptide to bind to scurfin
"RDFQSFRKMWPFFA [T(1-14), truncated form of P60, amino acids 1-14 of P60]",capacity to bind to scurfin (SPR signal),[1],does not destroy the capacity of the peptide to bind to scurfin
"AH1: synthetic peptide used as vaccine antigen, contains a cytotoxic T determinant for the CT26 line (SPSYVYHQF) [reference compound]",protection from tumor,[2]; mice immunized with AH1 alone,0%
RDFQSFRKMWPFFAM [P60],inhibition of the immunosuppressive effect of Treg lymphocytes on proliferation of effector cells in response to an MLR,[3],capable of inhibiting the immunosuppressive effect of Treg lymphocytes on the proliferation of effector cells
same,protection from tumor,"[2]; mice immunized with peptide AH1 and treated with P60 50 nm/mouse i.p. days 0, 2, 4, 6, 8, 10",82%
same,mice that developed a palpable tumor,[2]; of the 11 mice immunized with peptide AH1 and treated with P60,2
same,protection from tumor,"[2]; peptide P60 alone, non-immunized mice",10%
same,inhibition of the immunosuppressive effect of Treg lymphocytes on production of IFN-γ in response to anti-CD3,[4],capable of inhibiting the immunosuppressive effect of Treg lymphocytes on the production of IFN-γ
same,restoration of the production of IFN-γ inhibited by human Treg lymphocytes,[5],partly restoring the production of IFN-γ
same,inhibition of the immunosuppressive effect of Treg lymphocytes on production of IFN-γ by antigen-specific effector cells,[6],capable of inhibiting the immunosuppressive effect of Treg lymphocytes on the production of IFN-γ
same,expression of luciferase (NF-κB reporter) inhibited by scurfin,[7],restores the expression of luciferase
same,restoration of the MLR (cell proliferation) inhibited by human Treg lymphocytes,[8],capable of partly restoring the MLR
same,restoration of the production of IFN-γ due to the MLR inhibited by Karpas 299 cells,"[9]; 100 μM, 48 hours, ELISA",capable of partly recovering the production of IFN-γ
same,inhibitory activity on the immunosuppressive action of Treg cells among the 25 peptides selected,[9]; several in vitro assays (Example 2),highest inhibitory activity
same,capacity to bind to scurfin (SPR signal),[1],positive signal
"T(2-15): truncated form of P60, amino acids 2-15 of P60 (DFQSFRKMWPFFAM)",capacity to bind to scurfin (SPR signal),[1],inhibits the capacity of the peptide to bind to scurfin
